Laboratory results from US4803217A, “Hapalindolinone compounds as vassopressin antagonists” (Merck & Co., Inc., priority 1986, dated 1989).

Tests used:
[1] = biological target: vasopressin-stimulated adenylate cyclase, Kidney (V2); assay: Inhibition of vasopressin-stimulated adenylate cyclase in kidney medulla (V2 antagonism); assay type: biochemical; settings: conversion of ATP to cAMP, mean, n = 2, read-out: IC50 Values, AVP-stimulated Ad. Cyclase, Kidney (V2)
Excerpt: (§1) The table summarizes the in vitro potency of the compound to compete for ^3 H-vasopressin binding at two proposed vasopressin receptor subtypes (V1, V2), as well as to inhibit vasopressin-stimulated adenylate cyclase-activity, a further measure of vasopressin antagonism.
Vasopressin exerts its antidiuretic effects on the kidney through the stimulation of adenylate cyclase activity. Vasopressin-stimulated adenylate cyclase in kidney medulla, therefore, is used as a functional assay to determine the potencies of the test compound as V2 -vasopressin antagonists. In this assay, the IC50 value obtained for the compound IA (see Table IV) is a measure of its potency to inhibit the vasopressin-stimulated conversion of ATP to CAMP by adenylate cyclase. This method was adapted from Seamon et al., PNAS 78: 3363-3367 (1981).

[2] = biological target: T1, V1 (pressor) vasopressin receptor, rat liver crude membrane preparation (Rattus norvegicus, UniProt P30560); assay: [3H]Arginine Vasopressin Binding Assay, liver (V1); settings: rat liver membranes; mean, n = 3; read-out: IC50 Values, 3H-Arg8-Vasopressin Binding, Liver (V1)
T1 construct: crude membrane preparation of rat liver (V1 receptor); from tissue; host or cells: rat liver, crude membrane preparation
T1 sequence (P30560 whole entry): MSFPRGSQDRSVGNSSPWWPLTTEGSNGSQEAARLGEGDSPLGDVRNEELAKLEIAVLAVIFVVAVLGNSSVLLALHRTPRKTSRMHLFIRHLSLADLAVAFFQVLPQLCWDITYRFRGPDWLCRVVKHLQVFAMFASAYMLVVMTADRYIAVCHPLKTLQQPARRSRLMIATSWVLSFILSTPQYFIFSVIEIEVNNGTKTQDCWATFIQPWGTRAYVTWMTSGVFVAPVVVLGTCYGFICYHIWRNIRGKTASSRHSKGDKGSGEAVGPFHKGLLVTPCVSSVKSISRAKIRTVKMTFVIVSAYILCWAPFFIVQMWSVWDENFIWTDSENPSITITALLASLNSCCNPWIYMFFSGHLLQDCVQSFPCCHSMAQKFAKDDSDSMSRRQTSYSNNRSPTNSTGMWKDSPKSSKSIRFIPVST
Excerpt: as §1
(§2) The [^3 H]Arginine Vasopressin Binding Assay is an in vitro procedure which was adapted from the method of Guillon et al., Eur. J. Pharmacol. 85: 219-304 (1982). It measures the relative affinity of the compound for vasopressin receptor(s) labelled by [^3 H]vasopressin. Vasopressin receptors have been divided into two subtypes pharmacollogically: the V1 (pressor)-receptor found in liver and vascular smooth muscle and the V2 (antidiuretic) receptor found in kidney medulla. The binding assay uses a crude membrane preparation of rat liver (V1 receptor) or kidney medulla (V2 receptor) which is incubated with [^3 H]vaspopressin in the presence or absence of the test compound. The IC50 values (concentrations to inhibit [^3 H]vasopressin binding by 50%) for the compound (see Table VI) are measures of their potencies and are inversely related to their affinities.

[3] = biological target: T2, V2 (antidiuretic) vasopressin receptor, kidney medulla crude membrane preparation (Rattus norvegicus, UniProt Q00788); assay: [3H]Arginine Vasopressin Binding Assay, kidney medulla (V2); settings: kidney medulla membranes; mean with standard error, n = 3; read-out: IC50 Values, 3H-Arg8-Vasopressin Binding, Kidney (V2)
T2 construct: crude membrane preparation of rat liver (V1 receptor) or kidney medulla (V2 receptor); from tissue; host or cells: kidney medulla, crude membrane preparation
T2 sequence (Q00788 whole entry): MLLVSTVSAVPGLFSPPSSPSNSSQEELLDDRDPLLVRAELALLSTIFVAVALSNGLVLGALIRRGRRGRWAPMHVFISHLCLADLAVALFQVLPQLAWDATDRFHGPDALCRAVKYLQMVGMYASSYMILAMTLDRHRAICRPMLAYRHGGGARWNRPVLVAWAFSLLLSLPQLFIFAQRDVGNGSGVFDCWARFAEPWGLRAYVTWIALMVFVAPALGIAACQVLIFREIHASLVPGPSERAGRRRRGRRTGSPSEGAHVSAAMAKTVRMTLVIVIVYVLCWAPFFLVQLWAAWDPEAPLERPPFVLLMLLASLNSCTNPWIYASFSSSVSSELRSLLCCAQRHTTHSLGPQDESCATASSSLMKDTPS
Excerpt: as §1, §2

**Q.** With [C-]#[N+]C12C(C(C(=C)C)CC(Cl)C1(C)C=C)C21C(=O)Nc2ccccc21 (stereo not drawn) [Formula IA, Hapalindolinone A] as the compound, how does the IC50 [1] read?
**A.** 44.6 µM

**Q.** And the IC50 [2]?
**A.** > 100 µM

**Q.** What about the IC50 [3] of the same compound?
**A.** 37.5 ± 7.6 µM
